Reference: patent publication US20070169214A1, “Thiol methyltransferase-based selection” (priority 2004, published 2007)

Legend:
HEK 293 cells = assay: Growth of transfected HEK 293 cells monitored by GFP fluorescence; type: cell-based; settings: 0-200 mM toxin, 24 h
Description: A TMT insert was generated by linearizing pBluescript vector harboring the full-length clone (described in Example 2) with SpeI and ApaI and inserted into the pTracer™-SV40 mammalian expression plasmid. This vector contains a cycle-3-GFP, an improved Green Fluorescent Protein gene fused to Zeocin™ resistance gene for selection in mammalian cells. Transfection of HEK 293 cells was carried out in 24 well plates using Fugene 6™ Transfection reagent (Roche Molecular Biochemicals). A ratio of DNA to Fugene of 1:6 and 200 or 400 ng of DNA were used. Each well was seeded with 2×10^5 cells grown in a monolayer for 16 h in […] DMEM containing 10% serum. Transfection was performed on 90% confluent cells. Prior to transfection, the medium containing serum was removed and replaced with 150 μl of serum-free medium in each well. A DNA/Fugene 6 mixture was incubated for 15 min at room temperature and 100 μl of this mixture was added drop-wise to each well while cells were gently rocked. After a 3 hour incubation, another 250 μl DMEM containing 2× serum was added to each well and cells were further incubated for 48 h. […] These cells were allowed to grow for another 24 h. Growth was monitored by fluorescent microscopy to detect the presence of GFP. […] The emission of CH3I was then monitored by gas chromatography.

E. coli M15 cells = assay: Bacterial growth (OD600) in the presence of toxin; type: cell-based, Escherichia coli; settings: for growth of non-transgenic bacteria: E. coli M15 with empty vector pQE30, 4 h at 37° C.; for ΔOD600 (growth of transgenic bacteria): E. coli M15 with pQETMT1, 4 h at 37° C.
Description: E. coli M15 cells transformed with the empty vector pQE30 (referred to as non-transgenic bacteria) or pQETMT1 (hereafter referred to as transgenic bacteria) were grown as 15 ml starter cultures in LB medium supplemented with 100 μg/ml ampicillin and […] kanamycin at 37° C. for 16 h. 5 ml of each culture was then transferred to 100 ml of fresh LB medium containing the same concentrations of both antibiotics and cultures grown to an OD600 of 0.6. […] In the culture tubes, expression of the recombinant TMT protein was induced by adding […] (IPTG) to a final concentration of 1 mM. All the culture tubes were incubated at 37° C. for another 4 h. Bacterial growth at different toxin concentrations was measured by optical density (OD600) and the difference in OD600 (ΔOD600) was calculated.

tobacco plants = assay: In vivo TMT activity of tobacco plants grown on SCN; settings: transgenic tobacco plant
Description: (§1) In vivo assay: This assay was used in the studies described herein. In vivo TMT activity is measured in 10 leaf disks placed on a Whatman filter paper (4.25 cm) in a 50-ml Erlenmeyer flask, and incubated with 2 ml of a 100 mM KI solution (Saini et al., [1995] Plant, Cell and Environment, 18:1027-1033). The flask is sealed with a rubber stopper and CH3I formed in the headspace is quantified after 2 h by gas chromatography. Assays for alternative substrates or inhibitors of the enzyme contained 20 mol m^−3 KI (the known substrate) and a range of concentrations of the compound to be tested. In the assay for HS^− methylation, KI in the above assay is replaced with 20 mM (NH4)2S.
With reference to FIG. 34, the effect of SCN on in vivo TMT activity of transgenic/non-transgenic tobacco plants was analysed. […] As the concentration of SCN increased to 5 mM, the transgenic plant was able to methylate the SCN but beyond 5 mM, the activity decreased as higher SCN levels appear to confer some toxicity to the plant.

potato roots = assay: Potato root growth on MS with toxin (WinRhizo root length); design: species or system Solanum tuberosum cv Russet Burbank; settings: increasing toxin concentration, 10 days, transgenic and non-transgenic roots
Excerpt: pBluescript plasmid harboring the full-length TMT1clone (SEQ ID NO:1) was linearized with BamHI and KpnI and cloned in a sense orientation into the binary pBin19 double enhancer vector between the 35S promoter of CaMV and the Nos terminator. Agrobacterium rhizogenes wild-type strain A4 was then transformed either with the pBin/TMT vector or pBin vector alone. Freshly cut Solanum tuberosum cv Russet Burbank petioles were decontaminated by soaking in diluted commercial bleach (10%) containing 0.01% Tween-20™ for 10 min, followed by three 10 min washes in sterile water. The petioles were then cut into 4 cm segments and cultured apical side down in MS medium containing 0.4% phytagel™. The upper parts of the petioles were infected with freshly streaked A. rhizogenes A4 carrying the pBin19 vector alone (non-transgenic roots) or with the pBin vector with the TMT insert (transgenic roots). Roots started appearing after about 10 days. […]
Every 2 weeks, the carbenicillin concentration was halved until no carbenicillin was present in the medium. All roots were then screened for TMT activity using an in vivo technique where KI in solution (100 mM) was added to the roots and emission of CH3I was detected using gas chromatography. […] The roots were placed in MS containing 0.2% phytagel and allowed to grow for 10 days after which the growth was measured using WinRhizo™ software.

A. thaliana plants = assay: In vivo TMT activity in 3 Arabidopsis phenotypes grown on SCN
Description: as §1
With reference to FIG. 36, the effect of SCN on TMT activity in 3 Arabidopsis phenotypes was analysed. […] As the concentration of SCN increased the TT and Tt plants were less and less able to methylate the SCN. TT plants could methylate the SCN up to 10 mM while the Tt had no activity after 2.5 mM, as it appears that higher levels of SCN may have some toxicity to the heterozygote plant.

SMILES	GFP fluorescence (cell viability), transgenic vs non-transgenic cells (HEK 293 cells)	growth of non-transgenic bacteria (E. coli M15 cells; 250 mM KI)	ΔOD600 (growth of transgenic bacteria) (E. coli M15 cells; 250 mM KI)	SCN concentration beyond which in vivo TMT activity decreased (tobacco plants)	root growth (root length) (potato roots)	SCN concentration up to which plants could methylate SCN (TMT activity) (A. thaliana plants; TT (wild type) plants)	SCN concentration after which there was no TMT activity (A. thaliana plants; Tt (heterozygous) plants)	growth of non-transgenic bacteria (E. coli M15 cells; 200 mM NaSCN)	ΔOD600 (growth of transgenic bacteria) (E. coli M15 cells; 200 mM NaSCN)
I [KI]	more fluorescence in the transgenic than in the non-transgenic cells	growth of the non-transgenic bacteria was halted	0.547						
N#C[S-].[Na+] [NaSCN]	more fluorescence in the transgenic than in the non-transgenic cells			> 5 mM	growth of both transgenic and non-transgenic roots was affected	up to 10 mM	> 2.5 mM	halted non-transgenic bacterial growth	0.377
